Measured values published in patent US10590123B2, “Pesticidally active amide heterocyclic derivatives with sulphur containing substituents” (SYNGENTA PARTICIPATIONS AG, priority 2014, dated 2020).

Columns and labels:
[1] = system: Plutella xylostella (Diamond Back Moth); experiment: Example B3: Activity against Plutella xylostella, artificial diet; format: in vivo; settings: 120 h, application rate 200 ppm, L2 larvae, 5 days after infestation, read-out: effect in at least one of the two categories (mortality or growth inhibition)
Protocol: Example B3: Activity Against Plutella xylostella (Diamond Back Moth)
(§1) 24-well microtiter plates with artificial diet were treated with aqueous test solutions prepared from 10′000 ppm DMSO stock solutions by pipetting. After drying, the plates were infested with L2 larvae (10 to 15 per well). The samples were assessed for mortality and growth inhibition in comparison to untreated samples 5 days after infestation.

[2] = system: Frankliniella occidentalis (Western Flower Thrips); experiment: Example B5: Activity against Frankliniella occidentalis, sprayed sunflower leaf discs; format: in vivo; settings: foliar, 168 h, application rate 200 ppm, population of mixed ages, 7 days after infestation
Protocol: Example B5: Activity Against Frankliniella occidentalis (Western Flower Thrips)
(§2) Sunflower leaf discs were placed on agar in 24-well microtiter plates and sprayed with aqueous test solutions prepared from 10′000 ppm DMSO stock solutions. After drying the leaf discs were infested with a Frankliniella population of mixed ages. The samples were assessed for mortality 7 days after infestation.

[3] = system: Spodoptera littoralis (Egyptian Cotton Leaf Worm); experiment: Example B2: Activity against Spodoptera littoralis, systemic via lettuce roots in agar; format: in vivo; settings: 144 h, application rate 12.5 ppm, 6 days after infestation, read-out: control in at least one of the three categories (mortality, anti-feedancy or growth inhibition)
Excerpt: Example B2: Activity Against Spodoptera littoralis (Egyptian Cotton Leaf Worm)
Test compounds were applied by pipette from 10′000 ppm DMSO stock solutions into 24-well plates and mixed with agar. Lettuce seeds were placed on the agar and the multi well plate was closed by another plate which contains also agar. After 7 days the roots have absorbed the compound and the lettuce has grown into the lid plate. The lettuce leafs were now cut off into the lid plate. Spodoptera eggs were pipetted through a plastic stencil on a humid gel blotting paper and the plate closed with it.
The samples were assessed for mortality, anti-feedant effect and growth inhibition in comparison to untreated samples 6 days after infestation.

[4] = system: Diabrotica Balteata (Corn Root Worm); experiment: Example B4: Activity against Diabrotica balteata, sprayed maize sprouts; format: in vivo; settings: 96 h, application rate 200 ppm, L2 larvae, 4 days after infestation, read-out: effect in at least one of the two categories (mortality or growth inhibition)
Protocol: Example B4: Activity Against Diabrotica Balteata (Corn Root Worm)
as §1, with “Maize sprouts, placed on an agar layer in 24-well” for “24-well”, “plates” for “plates with artificial diet”, “spraying.” for “pipetting.”, “(6” for “(10”, “10” for “15”, “4” for “5”

[5] = system: Bemisia tabaci (Cotton White Fly); experiment: Example B6: Activity against Bemisia tabaci, sprayed cotton leaf discs; format: in vivo; settings: foliar, 144 h, application rate 200 ppm, adult white flies, 6 days after incubation
Protocol: Example B6: Activity Against Bemisia tabaci (Cotton White Fly)
Cotton leaf discs were placed on agar in 24-well microtiter plates and sprayed with aqueous test solutions prepared from 10′000 ppm DMSO stock solutions. After drying the leaf discs were infested with adult white flies. The samples were checked for mortality 6 days after incubation.

[6] = system: Spodoptera littoralis (Egyptian Cotton Leaf Worm); experiment: Example B1: Activity against Spodoptera littoralis, sprayed cotton leaf discs; format: in vivo; settings: foliar, 72 h, application rate 200 ppm, L1 larvae, 3 days after infestation, read-out: control in at least one of the three categories (mortality, anti-feedancy or growth inhibition)
Protocol: Example B1: Activity Against Spodoptera littoralis (Egyptian Cotton Leaf Worm)
Cotton leaf discs were placed on agar in 24-well microtiter plates and sprayed with aqueous test solutions prepared from 10′000 ppm DMSO stock solutions. After drying the leaf discs were infested with five L1 larvae. The samples were assessed for mortality, anti-feedant effect, and growth inhibition in comparison to untreated samples 3 days after infestation. Control of Spodoptera littoralis by a test sample is when at least one of mortality, anti-feedant effect, and growth inhibition is higher than the untreated sample.

[7] = system: Thrips tabaci (Onion Thrips); experiment: Example B11: Activity against Thrips tabaci, sprayed sunflower leaf discs; format: in vivo; settings: foliar, 144 h, application rate 200 ppm, thrips population of mixed ages, 6 days after infestation
Protocol: Example B11: Activity Against Thrips tabaci (Onion Thrips)
as §2, with “thrips” for “Frankliniella”, “6” for “7”

[8] = system: Euschistus heros (Neotropical Brown Stink Bug); experiment: Example B7: Activity against Euschistus heros, sprayed soybean leaf; format: in vivo; settings: 120 h, application rate 200 ppm, N-2 nymphs, 5 days after infestation
Protocol: Example B7: Activity Against Euschistus heros (Neotropical Brown Stink Bug)
Soybean leaf on agar in 24-well microtiter plates were sprayed with aqueous test solutions prepared from 10′000 ppm DMSO stock solutions. After drying the leaf were infested with N-2 nymphs. The samples were assessed for mortality 5 days after infestation.

[9] = system: Myzus persicae (Green Peach Aphid); experiment: Example B8: Activity against Myzus persicae, sprayed sunflower leaf discs; format: in vivo; settings: foliar, 144 h, application rate 200 ppm, aphid population of mixed ages, 6 days after infestation
Protocol: Example B8: Activity Against Myzus persicae (Green Peach Aphid)
Sunflower leaf discs were placed on agar in a 24-well microtiter plate and sprayed with aqueous test solutions prepared from 10′000 ppm DMSO stock solutions. After drying, the leaf discs were infested with an aphid population of mixed ages. The samples were assessed for mortality 6 days after infestation.

| Compound | melting point | percent effect (mortality or growth inhibition) at 200 ppm [1] | mortality at 200 ppm [2] | percent control (mortality, anti-feedant effect or growth inhibition) at 12.5 ppm [3] | percent effect (mortality or growth inhibition) at 200 ppm [4] | mortality at 200 ppm [5] | percent control (mortality, anti-feedant effect or growth inhibition) at 200 ppm [6] | mortality at 200 ppm [7] | mortality at 200 ppm [8] | mortality at 200 ppm [9] |
| --- | --- | --- | --- | --- | --- | --- | --- | --- | --- | --- |
| CCSc1cc(-c2ccc(Cl)cc2)cnc1C(=O)Nc1nnc(C(F)(F)C(F)(F)F)s1 | 184 to 187 °C |  |  |  |  |  |  |  |  |  |
| CCS(=O)(=O)c1cc(-c2cc(F)cc(F)c2)cnc1C(=O)Nc1nnc(C(F)(F)C(F)(F)F)s1 | 242 to 244 °C |  |  |  |  |  |  |  |  |  |
| CCS(=O)(=O)c1cc(-c2cc(F)cc(F)c2)cnc1C(=O)N(C)c1nnc(C(F)(F)C(F)(F)F)s1 | 159 to 161 °C |  |  |  |  |  |  |  |  |  |
| CCS(=O)(=O)c1cc(-c2ccc(C(F)(F)F)cc2)ccc1C(=O)N(C)c1nnc(C(F)(F)F)s1 | 174 to 176 °C |  |  |  |  |  |  |  |  |  |
| CCS(=O)(=O)c1cc(-c2cccc(Cl)c2)cnc1C(=O)N(C)c1nnc(C(F)(F)F)s1 | 213 to 215 °C |  |  |  |  |  |  |  |  |  |
| CCSc1cc(-c2ccc(C(F)(F)F)cc2)cnc1C(=O)Nc1nnc(C(F)(F)C(F)(F)F)s1 | 254 to 256 °C |  |  |  |  |  |  |  |  |  |
| CCS(=O)(=O)c1cc(-c2ccc(Cl)cc2)cnc1C(=O)N(C)c1nnc(C(F)(F)F)s1 [Compound P2, 5-(4-chlorophenyl)-3-ethylsulfonyl-N-methyl-N-[5-(trifluoromethyl)-1,3,4-thiadiazol-2-yl]pyridine-2-carboxamide] |  | ≥ 80% | ≥ 80% | ≥ 80% | ≥ 80% | ≥ 80% | ≥ 80% |  |  |  |
| CCS(=O)(=O)c1cc(-c2ccccc2)cnc1C(=O)N(C)c1nnc(C(F)(F)F)s1 [Compound P5, 3-ethylsulfonyl-N-methyl-5-phenyl-N-[5-(trifluoromethyl)-1,3,4-thiadiazol-2-yl]pyridine-2-carboxamide] |  | ≥ 80% | ≥ 80% | ≥ 80% | ≥ 80% |  | ≥ 80% | ≥ 80% | ≥ 80% | ≥ 80% |
| CCS(=O)(=O)c1cc(-c2ccc(Cl)cc2)cnc1C(=O)N(C)c1nnc(C(F)(F)C(F)(F)F)s1 [Compound P14] |  | ≥ 80% |  | ≥ 80% | ≥ 80% |  | ≥ 80% | ≥ 80% | ≥ 80% | ≥ 80% |
| CCS(=O)(=O)c1cc(-c2ccc(F)cc2)cnc1C(=O)N(C)c1nnc(C(F)(F)F)s1 [Compound P32] |  | ≥ 80% | ≥ 80% | ≥ 80% | ≥ 80% | ≥ 80% | ≥ 80% |  | ≥ 80% | ≥ 80% |
| CCS(=O)(=O)c1cc(-c2ccc(Cl)cn2)cnc1C(=O)N(C)c1nnc(C(F)(F)F)s1 [Compound P52] |  | ≥ 80% | ≥ 80% | ≥ 80% | ≥ 80% | ≥ 80% | ≥ 80% |  | ≥ 80% | ≥ 80% |
| CCS(=O)(=O)c1cc(-c2ccnc(F)c2)cnc1C(=O)N(C)c1nnc(C(F)(F)F)s1 [Compound P56] |  | ≥ 80% |  | ≥ 80% | ≥ 80% | ≥ 80% | ≥ 80% |  | ≥ 80% | ≥ 80% |
| CCS(=O)(=O)c1cc(-c2cc(C(F)(F)F)ccn2)cnc1C(=O)N(C)c1nnc(C(F)(F)F)s1 [Compound P65] |  | ≥ 80% |  |  | ≥ 80% |  | ≥ 80% | ≥ 80% | ≥ 80% | ≥ 80% |
